From US4072743A, “N^2 -arylsulfonyl-L-argininamides and the pharmaceutically acceptable salts thereof” (Mitsubishi Chemical Industries Limited, priority 1974, dated 1978)

Tests used:
mice = assay: Acute toxicity (LD50) by intraperitoneal administration in mice; assay type: in vivo; conditions: mice (male, 20 g)
Description: Representative LD50 values, for example, for N^2 -(5,6,7,8-tetrahydro-1-naphthylsulfonyl)-N-(2-methoxyethyl)glycine, N^2 -(7-methyl-2-naphthylsulfonyl)-N-butylglycine and N^2 -(6,7-dimethyl-1-naphthylsulfonyl)-N-(2-methoxyethyl)glycine are above 1,500 milligrams per kilogram, respectively.

thrombin = target: T1, thrombin (Bos taurus, UniProt P00735); assay: Fibrinogen coagulation time (thrombin-induced clotting of bovine fibrinogen); assay type: biochemical; conditions: thrombin 5 units/ml, borate saline buffer pH 7.4, 25° C, normal coagulation time 50-55 seconds prolonged to 100-110 seconds
T1 construct: purchased Mochida Pharmaceutical Co., Ltd
Protocol: The measurement of the fibrinogen coagulation time was conducted as follows:
Immediately after mixing, the reaction mixture was transferred from the ice bath to a bath maintained at 25° C. Coagulation times were taken as the period between the time of transference to the 25° C bath and the time of the first appearance of fibrin threads.
The term "concentration required to prolong the coagulation time by a factor of two" is the concentration of an active ingredient required to prolong the normal coagulation time 50-55 seconds to 100-110 seconds.

Row | SMILES | Concentration required to prolong the coagulation time by a factor of two (thrombin) [µM] | acute toxicity value (LD50) (mice)
1 | CCCCNC(=O)[C@H](CCCNC(=N)N)NS(=O)(=O)c1cccc2c(N(C)C)cccc12 [N^2 -dansyl-N-butyl-L-argininamide, reference compound] |  | 75 milligrams per kilogram
2 | CCCCN(C)C(=O)[C@H](CCCNC(=N)N)NS(=O)(=O)c1cccc2c(N(C)C)cccc12 [N^2 -dansyl-N-methyl-N-butyl-L-argininamide, reference compound] |  | 70 milligrams per kilogram
3 | COCCN(CC(=O)O)C(=O)[C@H](CCCNC(=N)N)NS(=O)(=O)c1cccc2c1CCCC2 [Sample 3, N^2-(5,6,7,8-tetrahydro-1-naphthylsulfonyl)-L-arginyl-N-(2-methoxyethyl)glycine] | 10 | above 1,500 milligrams per kilogram
4 | CCCCN(CC(=O)O)C(=O)[C@H](CCCNC(=N)N)NS(=O)(=O)c1ccc2ccc(C)cc2c1 [Sample 14, N^2-(7-methyl-2-naphthylsulfonyl)-L-arginyl-N-butylglycine] | 0.3 | above 1,500 milligrams per kilogram
5 | COCCN(CC(=O)O)C(=O)[C@H](CCCNC(=N)N)NS(=O)(=O)c1cccc2cc(C)c(C)cc12 [Sample 23, N^2-(6,7-dimethyl-1-naphthylsulfonyl)-L-arginyl-N-(2-methoxyethyl)glycine] | 10 | above 1,500 milligrams per kilogram

More lines, main results first:

Row | Concentration required to prolong the coagulation time by a factor of two (thrombin) [µM] | SMILES | acute toxicity value (LD50) (mice)
6 | 20 | CCCCN(CC(=O)O)C(=O)[C@H](CCCNC(=N)N)NS(=O)(=O)c1cccc2c1CCCC2 [Sample 1, N^2-(5,6,7,8-tetrahydro-1-naphthylsulfonyl)-L-arginyl-N-butylglycine] | 
7 | 30 | N=C(N)NCCC[C@H](NS(=O)(=O)c1ccc2c(c1)CCCC2)C(=O)N(CC(=O)O)Cc1ccccc1 [Sample 4, N^2-(5,6,7,8-tetrahydro-2-naphthylsulfonyl)-L-arginyl-N-benzylglycine] | 
8 | 0.2 | COCCN(CC(=O)O)C(=O)[C@H](CCCNC(=N)N)NS(=O)(=O)c1ccc2ccc(C)cc2c1 [Sample 15, N^2-(7-methyl-2-naphthylsulfonyl)-L-arginyl-N-(2-methoxyethyl)glycine] | 
9 | 14 | Cc1ccc2ccc(S(=O)(=O)N[C@@H](CCCNC(=N)N)C(=O)N(CC(=O)O)CC3CCCCC3)cc2c1 [Sample 17, N^2-(7-methyl-2-naphthylsulfonyl)-L-arginyl-N-cyclohexylmethylglycine] | 
10 | 20 | COCCN(CC(=O)O)C(=O)[C@H](CCCNC(=N)N)NS(=O)(=O)c1cccc2ccc(C)cc12 [Sample 22, N^2-(7-methyl-1-naphthylsulfonyl)-L-arginyl-N-(2-methoxyethyl)glycine] | 
11 | 4 | CCCCN(CC(=O)O)C(=O)[C@H](CCCNC(=N)N)NS(=O)(=O)c1cccc2c(N(C)C)cccc12 [Sample 24, N^2-(5-dimethylamino-1-naphthylsulfonyl)-L-arginyl-N-butylglycine] | 
